Results from US6602220B1, “Miniature air-controlled drug selector and delivery device portable by small animals” (The Research Foundation of State University of New York, priority 2000, dated 2003).

What was measured:
neocortical neuron = test: Single-cell recording with microdialysis drug delivery via minivalve, neocortex of freely moving rat; format: in vivo
Procedure: The experiment was performed on a freely moving rat which carried the minivalve 100 of the present invention on its head as illustrated in FIG. 1.

[1] = test system: single neuron, in the hippocampus; test: Single-cell recording/microdialysis study with minivalve, hippocampus of freely moving rat; format: in vivo
Description: Referring now to FIGS. 6a-6c, there is illustrated graphical data from a single-cell recording/microdialysis study performed with the minivalve 100 of the present invention. The recordings were made from the same single neuron, in the hippocampus of the freely moving rat 102 having the minivalve 100 mounted on its head, as illustrated in FIG. 1.

Structure (SMILES) | effect on firing of a neocortical neuron, first drug perfusion (neocortical neuron; 500 μM NMDA via microdialysis probe, freely moving rat) | time to effect after the minivalve switch (neocortical neuron; 500 μM NMDA, first perfusion, switch from position 1 to position 2) [min] | effect on firing of a neocortical neuron, second delivery (neocortical neuron; second NMDA delivery after wash-out) | effect of third exposure (neocortical neuron; third NMDA exposure three hours later) | effect on firing of hippocampal neuron, subsequent application ([1]; NMDA application through the probe after the second ethanol delivery) | effect on cell firing in the neocortex (neocortical neuron; ethanol delivered via microdialysis for two minutes, freely moving rat) | time to effect after the minivalve was switched (neocortical neuron; ethanol, neocortex) | effect on firing of hippocampal neuron, first perfusion ([1]; first ethanol perfusion into hippocampus recording site) | time to effect after minivalve activation ([1]; first ethanol perfusion, hippocampus) | effect on firing of hippocampal neuron, second delivery ([1]; second ethanol delivery, same neuron)
CN[C@H](CC(=O)O)C(=O)O [NMDA] | brief firing rate increase at point D, followed by a silent period | ≤ 1 | ineffective | clear excitatory effects associated with an EEG seizure | initial firing rate increase, followed by electrical silence |  |  |  |  | 
CCO [ethanol] |  |  |  |  |  | instant cell firing suppressant effect | within one minute | suppressed the firing of the recorded neuron | as quickly as two minutes | ineffective
